Source: ChEMBL document CHEMBL3885881, “DrugMatrix”

Species: Rattus norvegicus
Assay: DrugMatrix - Regimen: Daily Repeat
Assay type: toxicity, organism-based, Sprague-Dawley
Set-up: regimen Daily Repeat, gender Male, age 6-8 weeks
Settings: in vivo, po, route oral GAVAGE, […]; for ABSOLUTE BASOPHIL / ABSOLUTE EOSINOPHIL / ABSOLUTE LYMPHOCYTE / ABSOLUTE MONOCYTE / ABSOLUTE SEGMENTED NEUTROPHIL / BASOPHIL / EOSINOPHIL / ERYTHROCYTE COUNT / HEMATOCRIT / HEMOGLOBIN / LEUKOCYTE COUNT / LYMPHOCYTE / MEAN CORPUSCULAR HEMOGLOBIN / MEAN CORPUSCULAR HEMOGLOBIN CONCENTRATION / MEAN CORPUSCULAR VOLUME / MONOCYTE / NEUTROPHIL / NUCLEATED RED BLOOD CELLS / PLATELET COUNT: tissue Blood; for ALANINE AMINOTRANSFERASE / ALBUMIN / ALKALINE PHOSPHATASE / ASPARTATE AMINOTRANSFERASE / BLOOD UREA NITROGEN / CARBON DIOXIDE / CHLORIDE / CHOLESTEROL / CREATINE PHOSPHOKINASE / CREATININE / GLUCOSE / LACTATE DEHYDROGENASE / LIPASE / PHOSPHORUS / POTASSIUM / SODIUM / TOTAL BILIRUBIN / TOTAL PROTEIN / URIC ACID: tissue Plasma
[1] = 10 mg/kg, 72 h, dose level Low, time 3 day
[2] = 10 mg/kg, 120 h, dose level Low, time 5 day
[3] = 1200 mg/kg, 72 h, dose level High, time 3 day
[4] = 1200 mg/kg, 120 h, dose level High, time 5 day

`COC(=O)Nc1nc2cc(C(=O)c3ccc(F)cc3)ccc2[nH]1` [FLUBENDAZOLE] was tested, and the “ABSOLUTE BASOPHIL” value [1] was 0 CELLS/uL, the “ABSOLUTE EOSINOPHIL” value [1] was 47.67 CELLS/uL and the “ABSOLUTE LYMPHOCYTE” value [1] was 13609.33 CELLS/uL. For the same molecule, the “ABSOLUTE MONOCYTE” value [1] was 47.67 CELLS/uL, the “ABSOLUTE SEGMENTED NEUTROPHIL” value [1] was 1162 CELLS/uL and the BASOPHIL [1] was 0%. For the same molecule, the EOSINOPHIL [1] was 0.33%, the “ERYTHROCYTE COUNT” value [1] was 5.56 x10E6/uL and the HEMATOCRIT [1] was 35.83%. For the same molecule, the HEMOGLOBIN [1] was 14.1 G/DL, the “LEUKOCYTE COUNT” value [1] was 14.87 x10E3/uL and the LYMPHOCYTE [1] was 91.33%. For the same molecule, the “MEAN CORPUSCULAR HEMOGLOBIN” value [1] was 25.37 pg, the “MEAN CORPUSCULAR HEMOGLOBIN CONCENTRATION” value [1] was 39.33 G/DL and the “MEAN CORPUSCULAR VOLUME” value [1] was 64.4 fL. For the same molecule, the MONOCYTE [1] was 0.33%, the NEUTROPHIL [1] was 8% and the “NUCLEATED RED BLOOD CELLS” value [1] was 0 /100WBC. The “PLATELET COUNT” value [1] was 1248.33 x10E3/uL, the “ALANINE AMINOTRANSFERASE” value [1] was 66.33 u/L and the ALBUMIN [1] was 4.3 G/DL. For the same molecule, the “ALKALINE PHOSPHATASE” value [1] was 384.67 u/L, the “ASPARTATE AMINOTRANSFERASE” value [1] was 89 u/L and the “BLOOD UREA NITROGEN” value [1] was 14.67 mg/dL. For the same molecule, the “CARBON DIOXIDE” value [1] was 28.67 mmol/L, the CHLORIDE [1] was 103.67 MEQ/L and the CHOLESTEROL [1] was 73 mg/dL. The “CREATINE PHOSPHOKINASE” value [1] was 180.67 u/L, the CREATININE [1] was 0.2 mg/dL and the GLUCOSE [1] was 149.33 mg/dL. For the same molecule, the “LACTATE DEHYDROGENASE” value [1] was 206 u/L, the LIPASE [1] was 10.67 u/L and the PHOSPHORUS [1] was 13.07 mg/dL. The POTASSIUM [1] was 6.75 MEQ/L, the SODIUM [1] was 148 MEQ/L and the “TOTAL BILIRUBIN” value [1] was 0.17 mg/dL. The “TOTAL PROTEIN” value [1] was 5.6 G/DL, the “URIC ACID” value [1] was 2.37 mg/dL and the “ABSOLUTE BASOPHIL” value [2] was 0 CELLS/uL. The “ABSOLUTE EOSINOPHIL” value [2] was 0 CELLS/uL, the “ABSOLUTE LYMPHOCYTE” value [2] was 11922.67 CELLS/uL and the “ABSOLUTE MONOCYTE” value [2] was 87 CELLS/uL. For the same molecule, the “ABSOLUTE SEGMENTED NEUTROPHIL” value [2] was 723.67 CELLS/uL, the BASOPHIL [2] was 0% and the EOSINOPHIL [2] was 0%. The “ERYTHROCYTE COUNT” value [2] was 5.65 x10E6/uL, the HEMATOCRIT [2] was 34.27% and the HEMOGLOBIN [2] was 13.7 G/DL. The “LEUKOCYTE COUNT” value [2] was 12.73 x10E3/uL, the LYMPHOCYTE [2] was 93.67% and the “MEAN CORPUSCULAR HEMOGLOBIN” value [2] was 24.3 pg. For the same molecule, the “MEAN CORPUSCULAR HEMOGLOBIN CONCENTRATION” value [2] was 40.03 G/DL, the “MEAN CORPUSCULAR VOLUME” value [2] was 60.63 fL and the MONOCYTE [2] was 0.67%. For the same molecule, the NEUTROPHIL [2] was 5.67%, the “NUCLEATED RED BLOOD CELLS” value [2] was 0.33 /100WBC and the “PLATELET COUNT” value [2] was 1117 x10E3/uL. The “ALANINE AMINOTRANSFERASE” value [2] was 57.33 u/L, the ALBUMIN [2] was 4.23 G/DL and the “ALKALINE PHOSPHATASE” value [2] was 373.33 u/L. The “ASPARTATE AMINOTRANSFERASE” value [2] was 85.33 u/L, the “BLOOD UREA NITROGEN” value [2] was 15.67 mg/dL and the “CARBON DIOXIDE” value [2] was 23.33 mmol/L. The CHLORIDE [2] was 105 MEQ/L, the CHOLESTEROL [2] was 58.67 mg/dL and the “CREATINE PHOSPHOKINASE” value [2] was 240.33 u/L. For the same molecule, the CREATININE [2] was 0.22 mg/dL, the GLUCOSE [2] was 160.33 mg/dL and the “LACTATE DEHYDROGENASE” value [2] was 156.67 u/L. For the same molecule, the LIPASE [2] was 9.33 u/L, the PHOSPHORUS [2] was 12.1 mg/dL and the POTASSIUM [2] was 7.18 MEQ/L. For the same molecule, the SODIUM [2] was 146.47 MEQ/L, the “TOTAL BILIRUBIN” value [2] was 0.2 mg/dL and the “TOTAL PROTEIN” value [2] was 5.97 G/DL. The “URIC ACID” value [2] was 1.9 mg/dL, the “ABSOLUTE BASOPHIL” value [3] was 0 CELLS/uL and the “ABSOLUTE EOSINOPHIL” value [3] was 0 CELLS/uL. For the same molecule, the “ABSOLUTE LYMPHOCYTE” value [3] was 12475.33 CELLS/uL, the “ABSOLUTE MONOCYTE” value [3] was 43.67 CELLS/uL and the “ABSOLUTE SEGMENTED NEUTROPHIL” value [3] was 1014.33 CELLS/uL. The BASOPHIL [3] was 0%, the EOSINOPHIL [3] was 0% and the “ERYTHROCYTE COUNT” value [3] was 5.28 x10E6/uL. The HEMATOCRIT [3] was 33.83%, the HEMOGLOBIN [3] was 13.6 G/DL and the “LEUKOCYTE COUNT” value [3] was 13.53 x10E3/uL. For the same molecule, the LYMPHOCYTE [3] was 92%, the “MEAN CORPUSCULAR HEMOGLOBIN” value [3] was 25.87 pg and the “MEAN CORPUSCULAR HEMOGLOBIN CONCENTRATION” value [3] was 40.23 G/DL. The “MEAN CORPUSCULAR VOLUME” value [3] was 64.27 fL, the MONOCYTE [3] was 0.33% and the NEUTROPHIL [3] was 7.67%. The “NUCLEATED RED BLOOD CELLS” value [3] was 0.33 /100WBC, the “PLATELET COUNT” value [3] was 1168 x10E3/uL and the “ALANINE AMINOTRANSFERASE” value [3] was 71.67 u/L. The ALBUMIN [3] was 4.33 G/DL, the “ALKALINE PHOSPHATASE” value [3] was 451.33 u/L and the “ASPARTATE AMINOTRANSFERASE” value [3] was 104.67 u/L. The “BLOOD UREA NITROGEN” value [3] was 12 mg/dL, the “CARBON DIOXIDE” value [3] was 29.33 mmol/L and the CHLORIDE [3] was 100.67 MEQ/L. The CHOLESTEROL [3] was 60.33 mg/dL, the “CREATINE PHOSPHOKINASE” value [3] was 400 u/L and the CREATININE [3] was 0.19 mg/dL. For the same molecule, the GLUCOSE [3] was 163.67 mg/dL, the “LACTATE DEHYDROGENASE” value [3] was 208.67 u/L and the LIPASE [3] was 9.67 u/L. For the same molecule, the PHOSPHORUS [3] was 12.3 mg/dL, the POTASSIUM [3] was 6.63 MEQ/L and the SODIUM [3] was 146.5 MEQ/L. For the same molecule, the “TOTAL BILIRUBIN” value [3] was 0.17 mg/dL, the “TOTAL PROTEIN” value [3] was 5.7 G/DL and the “URIC ACID” value [3] was 1.9 mg/dL. The “ABSOLUTE BASOPHIL” value [4] was 0 CELLS/uL, the “ABSOLUTE EOSINOPHIL” value [4] was 0 CELLS/uL and the “ABSOLUTE LYMPHOCYTE” value [4] was 14800.33 CELLS/uL. The “ABSOLUTE MONOCYTE” value [4] was 0 CELLS/uL, the “ABSOLUTE SEGMENTED NEUTROPHIL” value [4] was 966.33 CELLS/uL and the BASOPHIL [4] was 0%. For the same molecule, the EOSINOPHIL [4] was 0%, the “ERYTHROCYTE COUNT” value [4] was 5.99 x10E6/uL and the HEMATOCRIT [4] was 36.1%. The HEMOGLOBIN [4] was 14.47 G/DL, the “LEUKOCYTE COUNT” value [4] was 15.77 x10E3/uL and the LYMPHOCYTE [4] was 93.67%. For the same molecule, the “MEAN CORPUSCULAR HEMOGLOBIN” value [4] was 24.2 pg, the “MEAN CORPUSCULAR HEMOGLOBIN CONCENTRATION” value [4] was 40.07 G/DL and the “MEAN CORPUSCULAR VOLUME” value [4] was 60.33 fL. For the same molecule, the MONOCYTE [4] was 0%, the NEUTROPHIL [4] was 6.33% and the “NUCLEATED RED BLOOD CELLS” value [4] was 0 /100WBC. For the same molecule, the “PLATELET COUNT” value [4] was 1290.67 x10E3/uL, the “ALANINE AMINOTRANSFERASE” value [4] was 58.33 u/L and the ALBUMIN [4] was 4.4 G/DL. The “ALKALINE PHOSPHATASE” value [4] was 432 u/L, the “ASPARTATE AMINOTRANSFERASE” value [4] was 93.33 u/L and the “BLOOD UREA NITROGEN” value [4] was 12.33 mg/dL. The “CARBON DIOXIDE” value [4] was 21.67 mmol/L, the CHLORIDE [4] was 103.33 MEQ/L and the CHOLESTEROL [4] was 77.67 mg/dL. The “CREATINE PHOSPHOKINASE” value [4] was 239.67 u/L, the CREATININE [4] was 0.28 mg/dL and the GLUCOSE [4] was 161 mg/dL. The “LACTATE DEHYDROGENASE” value [4] was 157.67 u/L, the LIPASE [4] was 10 u/L and the PHOSPHORUS [4] was 11.27 mg/dL. The POTASSIUM [4] was 6.7 MEQ/L, the SODIUM [4] was 144.17 MEQ/L and the “TOTAL BILIRUBIN” value [4] was 0.13 mg/dL. The “TOTAL PROTEIN” value [4] was 6.23 G/DL and the “URIC ACID” value [4] was 1.93 mg/dL.
